Measured values published in patent US12577231B2, “Androgen receptor PROTACS” (GlaxoSmithKline Intellectual Property Development Limited, priority 2023, dated 2026).
Residue numbers refer to the chain shown, from its start.

Assays:
[1] = molecular target: T1, Androgen receptor H875Y (Homo sapiens, UniProt P10275, H875Y); test: Degradation of overexpressed Androgen Receptor in A549 cells (HiBiT), H875Y; type: cell-based; details: A549 cells overexpressing AR H875Y, cycloheximide, 24 hours
T1 construct: expressed in transfected cells; host or cells: A549, transduced, puromycin selected
T1 sequence (P10275 1-920 H875Y): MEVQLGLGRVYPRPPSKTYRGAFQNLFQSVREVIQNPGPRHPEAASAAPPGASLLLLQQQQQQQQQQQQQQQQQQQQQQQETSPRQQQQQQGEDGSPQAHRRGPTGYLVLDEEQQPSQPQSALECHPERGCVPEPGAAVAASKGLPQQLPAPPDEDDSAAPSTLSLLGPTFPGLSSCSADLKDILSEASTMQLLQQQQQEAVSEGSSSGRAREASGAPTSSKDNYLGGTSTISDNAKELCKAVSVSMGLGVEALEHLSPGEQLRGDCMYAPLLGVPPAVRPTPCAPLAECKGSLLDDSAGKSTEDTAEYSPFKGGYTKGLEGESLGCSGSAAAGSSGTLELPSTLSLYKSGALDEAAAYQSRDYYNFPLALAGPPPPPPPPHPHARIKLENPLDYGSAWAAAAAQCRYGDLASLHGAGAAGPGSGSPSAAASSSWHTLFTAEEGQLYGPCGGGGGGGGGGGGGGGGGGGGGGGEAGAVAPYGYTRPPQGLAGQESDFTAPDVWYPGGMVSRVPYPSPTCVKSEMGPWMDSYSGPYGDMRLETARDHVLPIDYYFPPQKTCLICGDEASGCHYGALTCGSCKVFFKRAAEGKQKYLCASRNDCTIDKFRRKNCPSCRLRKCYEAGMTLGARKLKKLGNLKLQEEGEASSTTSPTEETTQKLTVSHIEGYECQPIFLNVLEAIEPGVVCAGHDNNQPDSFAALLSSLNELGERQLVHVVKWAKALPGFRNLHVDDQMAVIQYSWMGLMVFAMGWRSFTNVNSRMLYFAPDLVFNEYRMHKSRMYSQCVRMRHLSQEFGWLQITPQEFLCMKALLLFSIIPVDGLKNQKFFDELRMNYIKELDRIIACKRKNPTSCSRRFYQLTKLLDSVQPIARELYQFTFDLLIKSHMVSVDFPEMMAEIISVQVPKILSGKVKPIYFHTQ
Experimental: (§1) A549 cells were transduced to express wild type androgen receptor and Androgen receptor containing the following mutations (L702H, H875Y W742C W742L F877L, T878A and T878A/H875Y) with HiBiT tags. Transduced cells following puromycin selection were maintained in a humidified incubator (at 37° C. and 5% CO2 in the DMEM medium supplemented with 1% (v/v) Pen/Strep, 1% (v/v) Glutamax and 10% (v/v) FBS. A549 cells expressing each AR construct were detached from plate and counted. Cell suspensions at density 0.2 million per mL were prepared. Cell suspension was supplemented with 100 μg/mL of cycloheximide to block protein synthesis. Cells were preincubated with cycloheximide for 1 hr before seeding. Cells were seeded onto 384-well plate at density of 5,000 in 25 μL per well. A two fold serial dilution of test compounds, starting from 1 μM (row A) in 2-fold serial dilution series across the column using Tecan D300e dispenser. […]
(§2) Nano-Glo HiBiT Lytic reagent was prepared by adding LgBiT protein and Nano-Glo® substrate to lytic buffer pre-equilibrated at room temperature following manufacturer protocol (https://www.promega.co.uk/resources/protocols/technical-manuals/101/nanoglo-luciferase-assay-system-protocol). […] The plates were then centrifuged (100×G, 1 min) and incubated on shaker for 10 mins before taking readings on Pherastar Luminescence microplate reader. […]

[2] = molecular target: T2, Androgen receptor L702H (Homo sapiens, UniProt P10275, L702H); test: Degradation of overexpressed Androgen Receptor in A549 cells (HiBiT), L702H; type: cell-based; details: A549 cells overexpressing AR L702H, cycloheximide, 24 hours
T2 construct: expressed in transfected cells; host or cells: A549, transduced, puromycin selected
T2 sequence (P10275 1-920 L702H): T1 sequence (P10275 1-920 H875Y) with L702H, Y875H
Experimental: as §1, §2

Summary pXC50 [1]: 8.83 | Summary pXC50 [2]: 9.00
Compound: COc1cc(O[C@H]2C(C)(C)[C@H](NC(=O)c3ccc(N4CCC(CN5CCC(n6ncc7c(N8CCC(=O)NC8=O)nccc76)CC5)CC4)c(F)c3)C2(C)C)ccc1C#N [Example 20, N-((1r,3r)-3-(4-Cyano-3-methoxyphenoxy)-2,2,4,4-tetramethylcyclobutyl)-4-(4-((4-(4-(2,4-dioxotetrahydropyrimidin-1(2H)-yl)-1H-pyrazolo[4,3-c]pyridin-1-yl)piperidin-1-yl)methyl)piperidin-1-yl)-3-fluorobenzamide]
